Here are results for 1 compound from paper PMC12124721, “Impact of Fluorine Pattern on Lipophilicity and Acid–Base Properties of 2‑(Thiofluoroalkyl)pyridines: Insights from Experiments and Statistical Modeling” (Journal of Medicinal Chemistry, 2025).

Series [1] in a line: logD7.4 by shake-flask HPLC-UV for nonfluorinated pyridines. Format: physicochemical. The conditions noted are these: nonfluorinated pyridines, mean of three. As to the method: A protocol described by Ràfols and coworkers was followed for the determination of the log D ^7.4 values of the nonfluorinated pyridines. The 4-step process was replicated three times for each compound: • Stocksolution preparation: in a 12 mL vial, 15 mg of the pyridine was charged. Then, 6 mL of phosphate buffer at pH 7.4 was added, and the mixture was vigorously shaken for 2 h. An aliquot of this stock solution was measured by HPLC-UV. • Partitioning: three partitioning experiments were carried out for each compound. To prepare an experiment, in a vial containing a magnetic stir bar, a known amount of the stock solution was introduced, followed by another known amount of 1-octanol. Next, the biphasic mixture was stirred for 2 h and left to stand overnight to allow phase partition. For the selection of the different volume ratios, it was followed reported recommendations, although 1:1, 10:1, and 1:10 octanol:stock solutions were usually employed. • Sample preparation and measurement: to prepare the sample, 0.1 mL of the aqueous phase was taken and introduced in a 2 mL vial, following the precautions described in the previous section. The samples were then analyzed with the same HPLC-UV method as that of the stock solution. The log D ^7.4 value was obtaining by comparing the initial amount of pyridine in the aqueous phase before and after partitioning, taking into consideration the volume rates.

A short description of series [2]: pKa of conjugate acid by 1H NMR titration (nonfluorinated analogues). The series is classed as physicochemical. The conditions noted are these: aqueous solutions of different pH, conjugate acid (pyridinium), water. The protocol: The measurements were conducted on the corresponding conjugate acids of the thiofluoroalkylpyridines using an ^19F NMR method developed by Leito and coworkers. For nonfluorinated analogues, pK a was determined by an analogous method using ^1H NMR. […] Likewise, internal difluorination of the thioethyl group led to a more acidic pyridinium (9, pK a 2.05) compared to terminal difluorination (6, pK a 2.43). […] Computationally, it is straightforward to determine pK a values for molecular organic systems, obtaining quantitative predictions via fitting to experimental data (Table S12).
A protocol developed by the group of Leito was followed for the determination of the […] of fluorinated 2-substituted pyridines using ^19F NMR. […] Next, the tube was caped and shaken vigorously, and the pH of the resulting solution was measured inside the tube with a pH meter with an NMR-tube probe. […] Next, a standard ^19F NMR experiment was recorded to determine the chemical shifts of the external standard and the sample of interest. […] The battery of NMR samples at different pH values was measured. • Data processing: using MestReNova NMR software, the chemical shifts of the pyridines were determined. […] Next, the selected signal for each pyridine was plotted against the pH of the measured solution. […]

Turning to `CCSc1ccccn1` [Compound 5, 2-(Ethylthio)pyridine], the logD7.4 in series [1] (1-octanol/phosphate buffer pH 7.4, HPLC-UV) was 2,26. In series [1] (1-octanol/phosphate buffer, pH 7.4, 1-octanol/phosphate buffer pH 7.4, HPLC-UV), this compound had a logD of 2.26. Also, the pKa in series [2] worked out at 3.68.

One may read the logD as lipophilicity at a set pH, counting ionised and neutral species. Lower therefore signals a more hydrophilic compound. Usually pKa stands for the pH at which an ionisable group is half protonated.
